Measured values from US8722910B2, “Diyne compositions” (Evolva AG, priority 2009, dated 2014).
≈ marks a conversion by molar mass, not a printed value. Where two headings read alike, the source gives them in different places.

What was measured:
C. albicans SC5314 = experiment: MIC versus reference Candida strains (broth micro dilution); format: cell-based
Magnaporthe grisea = experiment: microbe, parasite or virus in culture; format: cell-based; conditions: Pyricularia oryzae, read-out: % Mycelial growth Inhibition
Alternaria solani = experiment: In vitro mycelial growth inhibition, poisoned plate; format: cell-based; conditions: 50 μg/ml
Method: (§1) Growth of fungi was carried out in potato dextrose agar media at […], and test compound was added at different concentrations and at pH 5.8 for compound X″ and at pH 7.0 for its potassium salt, compound XII″, with a water control instead of test compound. Radial mycelial growth was measured at regular intervals 4, 8, 12 and 16 days for slow growing fungi and at 3, 6 and 8 days for fast growing fungi. When the mycelia reached the end of the plate, measurements were stopped. Morphological changes in the hyphal growth and sporulation patterns were also observed. For dose response studies a range of concentrations and a range of inhibition obtained falling below and above 50% inhibition (see Table 23 below)

Botrytis cinerea [1] = experiment: as above; format: cell-based; conditions: 2.5 μg/ml
Method: as §1

[2] = tested on: Colletotrichum gloeosporioides (chili strain); experiment: as above; format: cell-based; conditions: 5 μg/ml
Method: as §1

[3] = tested on: Colletotrichum gloeosporioides (mango strain); experiment: as above; format: cell-based; conditions: 5 μg/ml
Method: as §1

Plasmopara viticola = format: cell-based; set-up: dose or concentration left out as unconfirmed; conditions: Plasmopara viticola (spore germination)
Uncinula necator = experiment: Leaf disk assay; conditions: Uncinula necator (leaf disc assay)
Method: Leaf disk assay was carried out by the cavity well plate method for powdery mildew disease of grapes. Leaf disks of 14 mm in diameter were cut with a cork borer from the healthy leaves (second and third from the tip) of grapevine plants, and were dipped in 100 μl of each test compound at different concentrations for two minutes, as in treatment details shown below. The control leaf disks were dipped only in sterile water for two minutes. The compound treated leaf disks were placed, abaxial side up, in TC-24 well plates containing water agar medium. The disks were inoculated by placing 20 μl of inoculum (1-5×10^6 spores/ml) on the centre of the disk. After inoculation, the cavity well plates were incubated at 20° C. for 10 days. After incubation, the powdery mildew lesions on the leaf disks were rated to 0-9 scale, in which, 0 was no visible symptoms and 9 represented more than 50% leaf area with mildew growth/lesion. Percent disease index (PDI) was calculated as follows: […]
After the observation, the conidia were washed from the leaf disks in known volume of a fixative solution of ethanol-formaldehyde-acetic acid (90:5:5, v/v/v) and counted with a hemocytometer.

Puccinia arachidis = experiment: Leaf disk assay; conditions: Puccinia arachidis (leaf disc assay)
[4] = tested on: Colletotrichum gloeosporioides; experiment: Paper disc in the path of pathogen growth, growth and sporulation; format: cell-based; conditions: compound on sterile paper disc
M. grisea = format: cell-based; conditions: sterile water with different concentrations of test compound
Botrytis cinerea [5] = experiment: Changes in the hyphal tips; format: cell-based; conditions: compound in the media, 2 μg/ml
Excerpt: Apical dominance is an important criterion for growth of hyphae of fungi: at the apical tip of the mycelia branching is not seen near the growing tip. Apical dominance is maintained but branching of hyphae will start at sub-apical point, a distance away from the growth point. Under abnormal conditions of stress, apical dominance is lost, extensive branching begins, resulting in the growth of the fungal mycelia being arrested. When the test compound is incorporated in the media in which the fungi is present, hyphal tip splitting and branching is seen with loss of apical dominance and polarity. […] Hyphae from the inoculated disc start growing against gravity and are thicker than the normal hyphae seen in the control (the two upper pictures).

C. albicans ATCC-24433 = experiment: MIC versus reference Candida strains (broth micro dilution); set-up: MICs (100% inhibition): unit not given beside the values; conditions: for MIC: Candida albicans
C. albicans ATCC-90028 = experiment: as above; set-up: MICs (100% inhibition): unit not given beside the values; conditions: for MIC: Candida albicans
C. glabrata ATCC-90030 = experiment: as above; set-up: MICs (100% inhibition): unit not given beside the values; conditions: for MIC: Nakaseomyces glabratus
C. krusei ATCC-6258 = experiment: as above; set-up: MICs (100% inhibition): unit not given beside the values; conditions: for MIC: Pichia kudriavzevii
[6] = tested on: C. parapsilosis ATCC-22019; experiment: as above; set-up: MICs (100% inhibition): unit not given beside the values; conditions: for MIC: Lodderomyces parapsilosis
[7] = tested on: C. parapsilosis ATCC-90018; experiment: as above; set-up: MICs (100% inhibition): unit not given beside the values; conditions: for MIC: Lodderomyces parapsilosis
C. tropicalis ATCC-750 = experiment: as above; set-up: MICs (100% inhibition): unit not given beside the values; conditions: for MIC: Candida tropicalis
Rhizoctonia solani = experiment: In vitro mycelial growth inhibition, poisoned plate; format: cell-based; conditions: 50 μg/ml
[8] = tested on: Botryodiplodia theobromae; experiment: as above; format: cell-based; conditions: Lasiodiplodia theobromae, 50 μg/ml
Sclerotium rolfsii = experiment: as above; format: cell-based; conditions: Agroathelia rolfsii, 50 μg/ml
Macrophomina phaseolina = experiment: as above; format: cell-based; conditions: 100 μg/ml
Pythium aphanidermatum = experiment: as above; format: cell-based; conditions: 50 μg/ml
Fusarium verticillioides = experiment: as above; format: cell-based; conditions: 50 μg/ml
Fusarium oxysporum = experiment: Mycelial growth inhibition, disc diffusion assay; format: cell-based

## O=C([O-])CCCCCCCCCC#CC#Cc1ccco1.[K+] [Compound XII″, Potassium 14-(furan-2-yl)tetradeca-11,13-diynoate]
C. albicans SC5314
  MIC: 0.01 µg/mL
Magnaporthe grisea
  inhibition at 5 µg/mL: 27%
Alternaria solani
  inhibition at 50 µg/mL: 42%
Botrytis cinerea [1]
  inhibition at 2.5 µg/mL: 76%
[2]
  inhibition at 5 µg/mL: 10%
[3]
  inhibition at 5 µg/mL: 28%
Plasmopara viticola
  Reduction in % disease index/germination: 93%
Uncinula necator; 10 μg/ml
  Reduction in % disease index/germination: 65%
Uncinula necator; 20 μg/ml
  Reduction in % disease index/germination: 100%
Puccinia arachidis; 10 μg/ml
  Reduction in % disease index/germination: 67%
Puccinia arachidis; 20 μg/ml
  Reduction in % disease index/germination: 75%
[4]
  growth of the mycelia: the growth of the mycelia is arrested
  sporulation around the loaded disc: no sporulation observed
M. grisea
  spores that did not germinate: more than 50%
Botrytis cinerea [5]
  toxicity to the fungus, hyphal changes: toxic to the fungus Botrytis cinerea
C. albicans ATCC-24433; ATCC24433
  MIC: 0.01 µg/mL
C. albicans ATCC-90028; ATCC90028
  MIC: 0.01 µg/mL
C. glabrata ATCC-90030; ATCC90030
  MIC: 0.32 µg/mL
C. krusei ATCC-6258; ATCC6258
  MIC: 0.64 µg/mL
[6]; ATCC22019
  MIC: > 10.2 µg/mL
[7]; ATCC90018
  MIC: 5.12 µg/mL
C. tropicalis ATCC-750; ATCC750
  MIC: 0.01 µg/mL

## O=C(O)CCCCCCCCCC#CC#Cc1ccco1 [Compound X″]
Rhizoctonia solani
  inhibition at 50 µg/mL: 19%
[8]
  inhibition at 50 µg/mL: 15%
Sclerotium rolfsii
  inhibition at 50 µg/mL: 5%
Macrophomina phaseolina
  inhibition at 100 µg/mL: 15%
Pythium aphanidermatum
  % Mycelial Growth Inhibition: No inhibition
Fusarium verticillioides
  inhibition at 50 µg/mL: 14%
Fusarium oxysporum
  % Mycelial Growth Inhibition: No inhibition
C. albicans ATCC-24433; C. albicans ATCC 24433, CLSI M27-A3, growth inhibition of 100%, 35° C., 24 hrs
  MIC breakpoints: 0.02 µg/mL (≈ 0.0698 µM)
C. albicans ATCC-24433; C. albicans ATCC 24433, NCCLS M27A, 35° C., 24 hrs
  MICs (100% inhibition): 20
C. albicans ATCC-24433; ATCC24433, read-out: minimal inhibitory concentrations
  MIC: 0.02 µg/mL (≈ 0.0698 µM)
C. albicans ATCC-90028; C. albicans ATCC 90028, CLSI M27-A3, growth inhibition of 100%, 35° C., 24 hrs
  MIC breakpoints: 0.02 µg/mL (≈ 0.0698 µM)
C. albicans ATCC-90028; C. albicans ATCC 90028, NCCLS M27A, 35° C., 24 hrs
  MICs (100% inhibition): 20
C. albicans ATCC-90028; ATCC90028, read-out: minimal inhibitory concentrations
  MIC: 0.02 µg/mL (≈ 0.0698 µM)
C. glabrata ATCC-90030; C. glabrata ATCC 90030, CLSI M27-A3, growth inhibition of 100%, 35° C., 24 hrs
  MIC breakpoints: 2.56 µg/mL (≈ 8.94 µM)
C. glabrata ATCC-90030; C. glabrata ATCC 90030, NCCLS M27A, 35° C., 24 hrs
  MICs (100% inhibition): 2560
C. glabrata ATCC-90030; ATCC90030, read-out: minimal inhibitory concentrations
  MIC: 2.56 µg/mL (≈ 8.94 µM)
C. krusei ATCC-6258; C. krusei ATCC 6258, CLSI M27-A3, growth inhibition of 100%, 35° C., 24 hrs
  MIC breakpoints: 1.28 µg/mL (≈ 4.47 µM)
C. krusei ATCC-6258; C. krusei ATCC 6258, NCCLS M27A, 35° C., 24 hrs
  MICs (100% inhibition): 1280
C. krusei ATCC-6258; ATCC6258, read-out: minimal inhibitory concentrations
  MIC: 1.28 µg/mL (≈ 4.47 µM)
[6]; C. parapsilosis ATCC 22019, CLSI M27-A3, growth inhibition of 100%, 35° C., 24 hrs
  MIC breakpoints: >10.24 µg/mL
[6]; C. parapsilosis ATCC 22019, NCCLS M27A, 35° C., 24 hrs
  MICs (100% inhibition): >10240
[6]; ATCC22019, read-out: minimal inhibitory concentrations
  MIC: > 10.2 µg/mL
[7]; C. parapsilosis ATCC 90018, CLSI M27-A3, growth inhibition of 100%, 35° C., 24 hrs
  MIC breakpoints: >10.24 µg/mL
[7]; C. parapsilosis ATCC 90018, NCCLS M27A, 35° C., 24 hrs
  MICs (100% inhibition): >10240
[7]; ATCC90018, read-out: minimal inhibitory concentrations
  MIC: > 10.2 µg/mL
C. tropicalis ATCC-750; C. tropicalis ATCC 750, CLSI M27-A3, growth inhibition of 100%, 35° C., 24 hrs
  MIC breakpoints: 0.08 µg/mL (≈ 0.279 µM)
C. tropicalis ATCC-750; C. tropicalis ATCC 750, NCCLS M27A, 35° C., 24 hrs
  MICs (100% inhibition): 80
C. tropicalis ATCC-750; ATCC750, read-out: minimal inhibitory concentrations
  MIC: 0.08 µg/mL (≈ 0.279 µM)
